Assay results published in patent US9556155B2, “Methods of treating fatty liver disease” (Genzyme Corporation, priority 2006, dated 2017).

Key:
Type in all cases: in vivo
ob/ob mice = test: Liver weight and body weight in ob/ob mice
Procedure: FIG. 6 is a graph comparing the liver weight to body weight ratios of ob/ob mice treated with water, ob/ob mice treated with Formula X, and lean mice treated with water after 6 weeks of treatment.
Male ob/ob mice were obtained from the Jackson Laboratories (Bar Harbor, Me.). These mice, being deficient in leptin, are hyperphagic and rapidly become obese. Severe hepatic steatosis is a characteristic of this model. Beginning at 7 weeks of age the mice were treated with Formula X by daily oral gavage (dosed 2× per day at 60 mg/kg/dose or 120 mg/kg/day). […] After 6 weeks of treatment, the animals were sacrificed and the livers dissected and weighed. In the placebo treated ob/ob mice, the liver weight to body weight ratio was higher than in lean animals (FIG. 6). […] N=6-8 mice per group.

[1] = test system: hepatic genes involved in lipogenesis, gluconeogenesis, inflammation, and fibrosis; test: Quantitative RT-PCR of hepatic genes in ob/ob mice; details: 120 mg/kg/day oral gavage, 6 weeks, vs placebo
Source text: FIGS. 7A-G are a series of graphs comparing the expression of hepatic genes involved in lipogenesis, gluconeogenesis, inflammation, and fibrosis in ob/ob mice treated with water, ob/ob mice treated with Formula X, and lean mice treated with water after 6 weeks of treatment. In FIG. 7A, lower levels of sterol regulatory element binding protein 1c (SREBP-1c) RNA are observed in the drug-treated versus placebo-treated control animals. In FIG. 7B, lower levels of acid citrate lyase 1 (ACL1) are observed in the drug-treated versus placebo-treated control animals. In FIG. 7C, lower levels of acetyl coenzyme A carboxylase 1 (ACC1) are observed in the drug-treated versus placebo-treated control animals. In FIG. 7D, lower levels of fatty acid synthase (FAS) are observed in the drug-treated versus placebo-treated control animals. In FIG. 7E, lower levels of tumor necrosis factor 1 alpha (TNF-α) are observed in the drug-treated versus placebo-treated control animals. In FIG. 7F, lower levels of glucose 6-phosphatase (G6P) are observed in the drug-treated versus placebo-treated control animals. In FIG. 7G, lower levels of procollagen type 1 (collagen) are observed in the drug-treated versus placebo-treated control animals. Thus, treatment with Formula X reduced the expression of genes involved in lipogenesis (SREBP-1c, ACL1, ACC1, FAS), gluconeogenesis (G6P), inflammation (TNF-α), and fibrosis.
The ob/ob mice, beginning at 7 weeks of age, were treated with Formula X by daily oral gavage (dosed 2× per day at 60 mg/kg/dose, or 120 mg/kg/day) for 6 weeks. The mice were sacrificed and total RNA was purified from the livers for quantitative RT-PCR (FIG. 7) of sterol regulatory element binding protein 1c (SREBP-1c), acid citrate lyase 1 (ACL1), acetyl coenzyme A carboxylase 1 (ACC1), fatty acid synthase (FAS), tumor necrosis factor 1 alpha (TNF-α), glucose 6-phosphatase (G6P), and procollagen type 1 (collagen).

DIO mice [2] = test: Markers of liver toxicity in blood of DIO mice; details: 125 mg/kg/day oral gavage, 9 weeks, vs placebo
Source text: FIGS. 5A-5D are a series of graphs comparing the levels of liver enzymes in DIO mice treated with water and DIO mice treated with Formula XI for 9 weeks. In FIG. 1A, lower levels of alanine aminotransferase (ALT) are observed in the drug-treated versus placebo-treated control animals. In FIG. 1B, lower levels of aspartate aminotransferase (AST) are observed in the drug-treated versus placebo-treated control animals. In FIG. 1C, lower levels of alkaline phosphatase are observed in the drug-treated versus placebo-treated control animals. In FIG. 1D, lower levels of γ-glutamyltransferase (GGT) are observed in the drug-treated versus placebo-treated control animals.
DIO mice were generated as described in Example 1. Mice were maintained on the high-fat diet for an additional 23 weeks (total time on diet 31 weeks). The mice were then treated with Formula XI by daily oral gavage (125 mg/kg/day). Blood was collected after 9 weeks of treatment and markers of liver toxicity were analyzed (IDEXX Laboratories, West Sacramento, Calif.). Lower levels of alanine aminotransferase (ALT), aspartate aminotransferase (AST), alkaline phosphatase, and gamma-glutamyltransferase (GGT) were found in the drug-treated versus placebo-treated control animals (FIGS. 5A-5D).

DIO mice [3] = test: Liver weight and body weight in DIO mice
Procedure: FIG. 4 is a graph comparing the liver weight to body weight ratios of DIO mice treated with water, DIO mice treated with Formula XI, and lean mice treated with water after 9 and 17 weeks of treatment.
DIO mice were generated as described in Example 1. Mice were maintained on the high-fat diet for an additional 23 weeks (total time on diet 31 weeks). The mice were then treated with Formula XI by daily oral gavage (125 mg/kg/day). […] After 9 and 17 weeks of treatment, groups of animals were sacrificed and the livers dissected and weighed. In the DIO mice, the liver weight to body weight ratio was higher than in lean animals.

[4] = test system: diet-induced obese (DIO) C57BL/6 mice; test: Hepatic steatosis in DIO mice, hematoxylin and eosin stained liver sections; details: 125 mg/kg daily oral gavage, 10 weeks, vs water control
Procedure: FIGS. 2A-2C are a series of photographs comparing hematoxylin and eosin stained liver sections of (A) diet-induced obese (DIO) C57BL/6 mice treated with water (control), (B) DIO mice treated with D-threo-1-(3′,4′-ethylenedioxy)phenyl-2-octanoylamino-3-pyrrolidino-1-propanol (Formula XI), and (C) lean mice treated with water (control). Mice were treated by daily oral gavage for 10 weeks and then sacrificed. In FIG. 1A, large vacuoles are visible throughout the parenchyma of the livers from the water-treated control mice. […] In FIG. 1C, the livers of normal, lean mice are devoid of any lipid-filled vacuoles.
Diet-induced obese (DIO) mice were first generated by placing C57BL/6 mice on a high-fat (45% of kcal) diet (D12451, Research Diets, Inc., New Brunswick, N.J.) for 8 weeks. Obese mice that had elevated glucose and insulin levels were selected and then treated with Formula XI by daily oral gavage (125 mg/kg) or with water as a control. After 10 weeks of treatment, the livers were harvested, sectioned, and stained with hematoxylin and eosin. Large vacuoles were visible throughout the parenchyma of the livers from the water control mice (FIGS. 2A-2C). These vacuoles contain neutral lipid by Oil Red O staining of the liver sections.

DIO mice [5] = test: Liver triglyceride levels in DIO mice (hepatic lipid extracts); details: 75 or 125 mg/kg daily oral gavage, 16 weeks, vs water control
Procedure: FIG. 3 is a graph comparing the mean levels of liver triglycerides in DIO mice treated with water, DIO mice treated with 75 mg/kg Formula XI, DIO mice treated with 125 mg/kg Formula XI, and lean mice treated with water. Mice were treated by daily oral gavage for 16 weeks and then euthanized. The livers were harvested and homogenized. Triglyceride levels were measured in hepatic lipid extracts.
DIO mice were generated as described in Example 1 and then treated with Formula XI by daily oral gavage at a dose of 75 or 125 mg/kg. Mice gavaged with water served as the control. After 16 weeks of treatment the livers were harvested and homogenized. The lipids were extracted with methanol:chloroform (4.3:3 v/v) and CaCI2. The extracted lipids were dried and dissolved in dimethylsulfoxide (DMSO). Triglycerides were measured using the Serum Triglyceride Determination kit (Sigma-Aldrich, St. Louis, Mo.) according to the protocol supplied by the manufacturer.

Row | Structure (SMILES) | liver weights (ob/ob mice; 120 mg/kg/day oral gavage, 6 weeks) | liver weight to body weight ratio (ob/ob mice; 6 weeks of treatment, vs water) | acetyl coenzyme A carboxylase 1 (ACC1) expression in liver [1] | acid citrate lyase 1 (ACL1) expression in liver [1] | fatty acid synthase (FAS) expression in liver [1] | glucose 6-phosphatase (G6P) expression in liver [1] | procollagen type 1 (collagen) expression in liver [1] | sterol regulatory element binding protein 1c (SREBP-1c) RNA level in liver [1] | tumor necrosis factor 1 alpha (TNF-α) expression in liver [1] | alanine aminotransferase (ALT) level (DIO mice [2]) | alkaline phosphatase level (DIO mice [2]) | aspartate aminotransferase (AST) level (DIO mice [2]) | gamma-glutamyltransferase (GGT) level (DIO mice [2]) | liver weights (DIO mice [3]; 125 mg/kg/day oral gavage, 9 and 17 weeks) | liver/body weight ratio (DIO mice [3]; 125 mg/kg/day oral gavage, after 17 weeks, vs lean group) | liver weight to body weight ratio (DIO mice [3]; 9 and 17 weeks of treatment, vs water) | size of liver vacuoles [4] | vacuoles visible in the livers (neutral lipid) [4] | total triglyceride levels in the liver (DIO mice [5])
1 | CCCCCCCCC(=O)NC(CN1CCCC1)C(O)c1ccc2c(c1)OCCO2 (stereo not shown) [Formula X, 1-(1,4-benzodioxan-6-yl)-2-nonanoylamino-3-pyrrolidino-1-propanol] | significantly reduced | reduction | lower levels | lower levels | lower levels | lower levels | lower levels | lower levels | lower levels | – | – | – | – | – | – | – | – | – | –
2 | CCCCCCCC(=O)NC(CN1CCCC1)C(O)c1ccc2c(c1)OCCO2 (stereo not shown) [Formula XI, 1-(1,4-benzodioxan-6-yl)-2-octanoylamino-3-pyrrolidino-1-propanol] | – | – | – | – | – | – | – | – | – | Lower levels | Lower levels | Lower levels | Lower levels | significantly reduced | comparable to that of the lean group | reduction | appreciably smaller | significantly fewer vacuoles | dose-dependent reduction
